# According to patent US10208033B2, “β-carboline, dihydro-β-carboline and tetrahydro-β-carboline alkaloid derivatives and preparation methods same and use in aspects of preventing and treating plant viruses, fungicides and insecticides” (NANKAI UNIVERSITY, priority 2013, dated 2019):
# Where a name gives a salt, the structure may show the parent alone. Read-outs that look alike come from different tables or passages of the source.
# Key:
# Sclerotinia scleotiorum = experiment: Fungicidal (bactericidal) activity in vitro, PDA colony diameter; type: cell-based; details: 50 mg/kg
# armyworms = type: in vivo; details: concentration 600 mg/kg
# Rhizoctonia solani = experiment: Fungicidal (bactericidal) activity in vitro, PDA colony diameter; type: cell-based; details: 50 mg/kg
# cucumber fusarium wilt = experiment: as above; type: cell-based; details: 50 mg/kg
# [1] = tested on: tobacco mosaic virus (TMV); experiment: Anti-TMV in vivo therapeutic effect; set-up: species or system tobacco mosaic virus (host Nicotiana tabacum L.cv.Xanthi NN)
# mosquito larvae = experiment: whole plant or invertebrate; details: 24 h
# Procedure, shortened: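 Compound dissolved in acetone (or other solvent) to a 1000 ppm stock and diluted in water to 5 ppm. Ten Culex pipiens pallens larvae at the start of the fourth instar, laboratory-reared, added per beaker; solvent-only aqueous control.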
# corn borers = details: concentration 600 mg/kg
# [2] = tested on: Colletotrichum orbiculare; experiment: Fungicidal (bactericidal) activity in vitro, PDA colony diameter; type: cell-based; details: 50 mg/kg
# [3] = tested on: tobacco mosaic virus (TMV); experiment: Anti-TMV in vivo protective effect; set-up: species or system tobacco mosaic virus (host Nicotiana tabacum L.cv.Xanthi NN)
# Bipolaria maydis = experiment: organism not typed; type: cell-based; details: 50 mg/kg
# cotton bollworms = experiment: whole plant or invertebrate; details: concentration 600 mg/kg
# Description: Experimental method of cotton bollworms: feed and drug mixing method: measure 3 mL of prepared solution and add it to about 27 g of newly prepared feed, thereby obtaining needed concentration through dilution by 10 times.
# Fusarium fujikuroi = experiment: Fungicidal (bactericidal) activity in vitro, PDA colony diameter; type: cell-based; details: 50 mg/kg
# Macrophoma kawatsukai = experiment: as above; type: cell-based; details: 50 mg/kg
# Rhizoctonia cereali = experiment: as above; type: cell-based; details: 50 mg/kg
# Cercospora arachidicola = experiment: as above; type: cell-based; details: 50 mg/kg
# [4] = tested on: tobacco mosaic virus (TMV); experiment: Anti-TMV in vitro effect (half-leaf soaking); type: cell-based, tobacco mosaic virus (host Nicotiana tabacum L.cv.Xanthi NN)
# Fusarium graminearumt = experiment: microbe, parasite or virus in culture; type: cell-based; details: 50 mg/kg
# Alternaria solani = experiment: Fungicidal (bactericidal) activity in vitro, PDA colony diameter; type: cell-based; details: 50 mg/kg
# Botrytis cinerea = experiment: as above; type: cell-based; details: 50 mg/kg
# [5] = tested on: tobacco mosaic virus (TMV); experiment: Anti-TMV in vivo inactivation; set-up: species or system tobacco mosaic virus (host Nicotiana tabacum L.cv.Xanthi NN)
# potato late blight = experiment: microbe, parasite or virus in culture; type: cell-based
# Phytophthora capsici = experiment: Fungicidal (bactericidal) activity in vitro, PDA colony diameter; type: cell-based; details: 50 mg/kg
SMILES,Bactericidal activity (%) Sclerotinia scleotiorum (Sclerotinia scleotiorum),Armyworm Mortality (%) (armyworms),Bactericidal activity (%) Rhizoctonia solani (Rhizoctonia solani),Bactericidal activity (%) Cucumber fusarium wilt (cucumber fusarium wilt),Relative inhibition rate (%) In vivo therapy ([1]; treatment dose 100 μg/mL),Relative inhibition rate (%) In vivo therapy ([1]; treatment dose 500 μg/mL),Mosquito larvae Mortality (%) (mosquito larvae; concentration 10 mg/kg),Corn borer Mortality (%) (corn borers),Bactericidal activity (%) Colletotrichum orbiculare [2],Relative inhibition rate (%) In vivo protection ([3]; treatment dose 100 μg/mL),Relative inhibition rate (%) In vivo protection ([3]; treatment dose 500 μg/mL),Bactericidal activity (%) Bipolaria maydis (Bipolaria maydis),Cotton bollworm Mortality (%) (cotton bollworms),Bactericidal activity (%) Fusarium fujikuroi (Fusarium fujikuroi),Bactericidal activity (%) Macrophoma kawatsukai (Macrophoma kawatsukai),Bactericidal activity (%) Rhizoctonia cereali (Rhizoctonia cereali),Bactericidal activity (%) Cercospora arachidicola (Cercospora arachidicola),Relative inhibition rate (%) In vitro activity ([4]; treatment dose 100 μg/mL),Relative inhibition rate (%) In vitro activity ([4]; treatment dose 500 μg/mL),Bactericidal activity (%) Fusarium graminearumt (Fusarium graminearumt),further results
"CCOC(=O)C1Cc2c([nH]c3ccccc23)CN1 (centres unmarked) [Ib-9, 2,3,4,9-tetrahydropyridino [3,4-b] indol-3-ethyl formate]",19.6%,15%,35.5%,19.2%,14.3%,42.7%,35%,10%,42.9%,17.2%,40.4%,22.7%,10%,14.3%,21.4%,44.7%,84.6%,12.8%,44.5%,35.7%,Bactericidal activity (%) Alternaria solani (Alternaria solani): 26.3%; Bactericidal activity (%) Botrytis cinerea (Botrytis cinerea): 12.1%; Relative inhibition rate (%) In vivo inactivation ([5]; treatment dose 100 μg/mL): 16.9%; Relative inhibition rate (%) In vivo inactivation ([5]; treatment dose 500 μg/mL): 41%; Bactericidal activity (%) potato late blight (potato late blight): 22.7%; Bactericidal activity (%) Phytophthora capsici (Phytophthora capsici): 15.6%
"CCOC(=O)[C@@H]1Cc2c([nH]c3ccccc23)[C@H](CC)N1 [Ib-10, (1S, 3S)-1-ethyl-2,3,4,9-tetrahydropyridino [3,4-b] indol-3-ethyl formate]",56.0%,30%,21.4%,23.8%,11.4%,38.1%,60%,25%,42.9%,10.7%,36.6%,31.6%,15%,35.7%,64.7%,65.6%,21.4%,0%,34.1%,35.7%,Bactericidal activity (%) Alternaria solani (Alternaria solani): 55.6%; Bactericidal activity (%) Botrytis cinerea (Botrytis cinerea): 40.9%; Relative inhibition rate (%) In vivo inactivation ([5]; treatment dose 100 μg/mL): 12.6%; Relative inhibition rate (%) In vivo inactivation ([5]; treatment dose 500 μg/mL): 46.4%; Bactericidal activity (%) potato late blight (potato late blight): 30.0%; Bactericidal activity (%) Phytophthora capsici (Phytophthora capsici): 45.5%
"CCOC(=O)[C@H]1Cc2c([nH]c3ccccc23)[C@@H](C)N1 [Ib-12, (1R,3R)-1-methyl-2,3,4,9-tetrahydropyridino [3,4-b] indol-3-ethyl formate]",17.7%,50%,42.1%,19.2%,12.9%,38.6%,100%,50%,25.0%,17%,41.9%,18.2%,30%,28.6%,54.8%,39.5%,92.3%,12.6%,40%,26.2%,Mosquito larvae Mortality (%) (mosquito larvae; concentration 5 mg/kg): 40%; Bactericidal activity (%) Alternaria solani (Alternaria solani): 26.3%; Bactericidal activity (%) Botrytis cinerea (Botrytis cinerea): 24.2%; Relative inhibition rate (%) In vivo inactivation ([5]; treatment dose 100 μg/mL): 16.7%; Relative inhibition rate (%) In vivo inactivation ([5]; treatment dose 500 μg/mL): 35.8%; Bactericidal activity (%) potato late blight (potato late blight): 18.2%; Bactericidal activity (%) Phytophthora capsici (Phytophthora capsici): 9.4%
"CCOC(=O)C1Cc2c([nH]c3ccccc23)C(C)=N1 (centres unmarked) [Ib-14, 1-methyl-4,9-dihydro-pyridino [3,4-b] indol-3-ethyl formate]",29.4%,10%,59.2%,23.1%,15.9%,45.8%,30%,10%,42.9%,21.4%,47%,36.4%,30%,28.6%,33.3%,65.8%,69.2%,11.1%,42.6%,42.9%,Bactericidal activity (%) Alternaria solani (Alternaria solani): 42.1%; Bactericidal activity (%) Botrytis cinerea (Botrytis cinerea): 36.4%; Relative inhibition rate (%) In vivo inactivation ([5]; treatment dose 100 μg/mL): 0%; Relative inhibition rate (%) In vivo inactivation ([5]; treatment dose 500 μg/mL): 35.7%; Bactericidal activity (%) potato late blight (potato late blight; 50 mg/kg): 36.4%; Bactericidal activity (%) Phytophthora capsici (Phytophthora capsici): 15.6%
"C[C@@H]1N[C@H](C(=O)NCCO)Cc2c1[nH]c1ccccc21 [Ib-18, (1S, 3S)—N-(2-ethoxyl)-1-methyl-2,3,4,9-tetrahydro-pyridino [3,4-b] indol-3-formamide]",68.0%,5%,35.7%,23.8%,18.6%,40%,10%,5%,23.8%,12.1%,41%,26.3%,5%,35.7%,70.6%,53.1%,21.4%,5.4%,37.6%,28.6%,Bactericidal activity (%) Alternaria solani (Alternaria solani): 27.8%; Bactericidal activity (%) Botrytis cinerea (Botrytis cinerea): 27.3%; Relative inhibition rate (%) In vivo inactivation ([5]; treatment dose 100 μg/mL): 10%; Relative inhibition rate (%) In vivo inactivation ([5]; treatment dose 500 μg/mL): 41.5%; Bactericidal activity (%) potato late blight (potato late blight): 5.0%; Bactericidal activity (%) Phytophthora capsici (Phytophthora capsici): 36.4%
